Reference: US7455861B2, “Angelicae sinensis extracts useful for treatment of cancers” (priority 2004, dated 2008)
Like-named read-outs stand apart in the source and are kept apart here.

Experiments:
Caco-2 = assay: Cytotoxicity (IC50) on Caco-2; type: cell-based; settings: Homo sapiens
Method: (§1) Human tumor cell lines (MCF-7, CL1-5, HT-29, Caco-2), human umbilical vascular endothelial cells (HUVEC), and human dermal fibroblasts (HDF) were tested for sensitivity on Angelicae sinensis extracts, ligustilide, n-butylidenephthalide and its derivatives in vitro. The DBTRG-05MG, BCM, HL-60 and J5 cells were grown in RPMI-1640 medium containing 10% fetal calf serum and 100 ng/ml penicillin and […] streptomycin at 37° C. in a humidified atmosphere with 5% CO2. The G5T/VGH, RG2, Ni 8, SVEC and Balb/3T3 cells were cultured in DMEM with 10% fetal calf serum and 100 ng/ml penicillin and […] streptomycin at 37° C. in 5% CO2. Mycoplasma infection of the culture cells was excluded by PCR screening methods before each experiment.
The effects on cell viability after the treatments with different concentrations of the Angelicae sinensis extracts or the active components purified therefrom were evaluated by modified MTT assay in triplicate. Briefly, the cells (5×10^3) were incubated into 96-well plates containing 100 μl of a growth medium. The cells were permitted to adhere for 24 hours, then treated with 100 μl of the herbal extracts or the active components dissolved in the medium. The control contained DMSO of <0.02% (v/v). […] Absorbance at 550 nm of the solutions was measured with MRX Microtiter Plate Luminometer (DYNEX, USA). The absorbance of untreated cells was considered as 100%. […]

DBTRG-05MG cells = assay: Western blot analysis of apoptosis molecules; type: cell-based, human; settings: BP 400 μM
Method: DBTRG-05MG cells (human GBM cells) were treated with AS-C (70 μg/ml) for 0, 6, 12, 24 and 48 hours. In another test, DBTRG-05MG cells were treated with BP (400 μM) for 0, 1.5, 3, 6, 12, 24 and 48 hours. The cell pellets were re-suspended in lysis buffer ([…] Tris-HCl, pH 7.5, 1 mM EGTA, 0.5% CHAPS, 10% (v/v) glycerol, 5 mM β-2-mercaptoethanol and 0.1 mM phenylmethylsulfonyl fluoride) and incubated on ice for 30 min, and then centrifuged at 13000×rpm at 4° C. for 20 minutes. The protein concentration of whole cell lysates was measured with BCA protein assay kit (Pierce, Rockford, Ill.) following the manufacturer's instructions. The cell lysates (20 μg/lane) were electrophoresed on 10-12% SDS-PAGE (Bio-Rad, Hercules, Calif.). Proteins were transferred to polyvinyldenefluoride (PVDF) membranes (Amersham Lifesciences, Piscataway, N.J.). The membranes were masked for 1 hour at room temperature with 5% skim milk as the blocking agent, and incubated with the respective antibodies of Fas (FL-335), Fas-L (C-178), caspase 3 (H-277), caspase 8 (H-134), caspase 9 (H-170), Bax (B-9), p16 (F-12), p21 (F-5), p53 (DO-1; 1/100 dilution) (Santa Cruz Biotechnology Inc., CA, U.S.A.), phospho-p53 (Ser15; 1/2000 dilution) and phospho-Rb (Ser795; 1/2000 dilution) (Cell Signaling Technology, MA, USA) for 2 hours at room temperature. Antibody recognition was detected, by incubating the membranes with the respective anti-mouse, anti-rabbit, anti-goat IgG secondary antibodies (1/1000 dilution; Santa Cruz Biotechnology Inc., CA, U.S.A.) conjugated to horseradish peroxidase, for 1 hour at room temperature, and visualized with the ECL Plus chemiluminescence system (Amersham, Arlington Heights, Ill.). For system control, SDS-PAGE gels, for every test sample, were prepared in duplicate, containing the same amount of protein; and the control gel was stained with coomassie blue. The other gel was used for Western Blot analysis. The intensity of the bands was analyzed by densitometry with a GS-800 Calibrated Imaging Densitometer (Quantity One 4.0.3 software; Bio-Rad). […] In addition, the activation of the death receptor-induced apoptosis-related caspases-8 was monitored.

GBM cells (DBTRG-05MG) = assay: Apoptosis of GBM cells by TUNEL; type: cell-based, human
Method: Apoptotic cell death was analyzed using In Situ Cell Death Detection Kit, POD (Roche, Germany). Changes in DNA chromatin morphologic features were used for quantification. The procedures were performed in accordance with the manufacturer's instructions. […] In AS-C and BP-treated groups, the suspended cells were collected. In the control group, adherent and floating cells were collected. Then, the cells were fixed with 3.7% formaldehyde at room temperature for 15 min. on saline coated slides, washed once in 1×PBS, and incubated in cold permeabilization solution (0.1% Triton X-100+0.1% sodium citrate) after reducing activity of endogenous peroxidase with 3% H2O2. The cells were washed with 1×PBS again, and incubated with terminal deoxynucleiotidyl transferase (TdT)-mediated dUTP nicks labeling (TUNEL) reaction mixture for 60 minutes at 37° C. Then, the cells were washed with 1×PBS, counterstained with propidium iodide (PI) for cell counting. For quantification of apoptosis, the results were viewed under fluorescence microscopy (Nikon, Kawasaki, Japan).
The apoptotic cells with AS-C treatment were detected by fluorescence microscopy (400×), with In Situ TUNEL staining and propidium iodide cell counterstaining, and observed under light field. Likewise, BP induced apoptosis in GBM cells was assessed by TUNEL method and using propidium iodide as a counter stain. […]

DBTRG-05MG = assay: Cytotoxicity (IC50) on DBTRG-05MG; type: cell-based; settings: Homo sapiens
Method: as §1
The effects on cell viability after the treatments with different concentrations of the Angelicae sinensis extracts or the active components purified therefrom were evaluated by modified MTT assay in triplicate. Briefly, the cells (5×10^3) were incubated into 96-well plates containing 100 μl of a growth medium. The cells were permitted to adhere for 24 hours, then treated with 100 μl of the herbal extracts or the active components dissolved in the medium. The control contained DMSO of <0.02% (v/v). After 24, 48 and 72 h incubation, the drug-containing medium was replaced by 50 μl of fresh medium, and cells in each well were incubated in 50 μl of 400 μg/ml MTT for 6-8 h. The medium and MTT were removed later and 100 μl of DMSO was added to each well and to the control, to dissolve the soluble components. Absorbance at 550 nm of the solutions was measured with MRX Microtiter Plate Luminometer (DYNEX, USA). The absorbance of untreated cells was considered as 100%. To evaluate the effects of the extracts or the active components on cell growth rate of GBM cells, 5×10^3 exponentially growing cells were treated with different concentrations for 24, 48, or 72 h. The cytotoxicity of each test substance was determined as an IC50 value, which represents the drug concentration required to cause 50% inhibition. […]

CCCC=C1OC(=O)c2ccccc21 [BP, n-Butylidenephthalide] was tested, and the IC50 (Caco-2; Table 1, value in parentheses) was > 106 µM, the IC50 (Caco-2; cancer cells, Table 1) was > 20 µg/mL and the Caspase-3 (DBTRG-05MG cells) was “increase”. For the same compound, the “cdk2, cdk4, cdk6 cyclins D1 and cycline E” value (DBTRG-05MG cells) was “decrease”, the “expression of the Fas Ligand” value (DBTRG-05MG cells) was “suppressing” and the “procaspase 8” value (DBTRG-05MG cells) was “declined”. The procaspase-3 (DBTRG-05MG cells) was “declined”, the procaspase-9 (DBTRG-05MG cells) was “declined” and the “expression of Fas, increase” value (DBTRG-05MG cells; 1.5 h) was 5.2 times. It also gave a p53 phosphorylation increase (DBTRG-05MG cells; 1.5 h) of 5.2 times, an AIF expression increase (DBTRG-05MG cells; 48 h) of 2.4 times and a Bax expression increase (DBTRG-05MG cells; 48 h) of 16 times. For the same compound, the Rb phosphorylation decrease (DBTRG-05MG cells; 48 h) was 0.2 times, the “activated caspase-9” value (DBTRG-05MG cells; 48 h) was 25.8 times and the “activation of caspase 8” value (DBTRG-05MG cells; 48 h) was 137.9. The “expression of Fas, increase” value (DBTRG-05MG cells; 48 h) was 27.9 times, the p16 expression increase (DBTRG-05MG cells; 48 h) was 3.1 times and the p21 expression increase (DBTRG-05MG cells; 48 h) was 2.3 times. The p53 expression increase (DBTRG-05MG cells; 48 h) was 1.4 times, the p53 phosphorylation increase (DBTRG-05MG cells; 48 h) was 9.2 times and the “apoptosis rates of GBM cells compared to untreated cells (TUNEL)” value (GBM cells (DBTRG-05MG); BP 5 to 800 μM, 48 hours) was “much higher”. The “detached GBM cells having undergone apoptosis (TUNEL)” value (GBM cells (DBTRG-05MG); BP 5˜800 μg/ml as printed, 72 hours) was “almost all”, the IC50 (DBTRG-05MG; Table 2, read-out: Cytotoxicity (IC50) DBTRG-05MG) was 7 to 10 µg/mL and the IC50 (DBTRG-05MG; Table 2, value in parentheses, read-out: Cytotoxicity (IC50) DBTRG-05MG) was 37.2 to 53.2 µM.
